Assay results from EP0241395A2, “Sweeteners derived from n-phenylguanidinoacetic and n-phenylethananamidinacetic acids, and compositions containing such sweeteners” (UNIVERSITE CLAUDE BERNARD - LYON 1, priority 1986, dated 1987).

Tests used:
[1] = tested on: groupe de huit goûteurs expérimentés; assay: Sweetening power judged by a panel of eight experienced tasters against a sucrose reference solution; assay type: in vivo; conditions: weight basis; for Pouvoir édulcorant: Table II, relative to a 2 % sucrose solution; for pouvoir édulcorant, sur une base pondérale: approximate
Procedure, shortened: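 Panel of eight experienced tasters compared aqueous solutions of compound at varying concentrations with a sucrose reference at 2 %, sometimes 5 % and 10 %. Sweetening power is the weight ratio of sucrose to compound at equal sweetness intensity, as judged by a majority of tasters, and depends on the reference concentration.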

[2] = Stability in solution at pH 3 and 70 °C, remaining compound determined by HPLC; assay type: physicochemical; conditions: pH 3, phosphate buffer 1mM; for remaining at 168 h: 1 mm phosphate buffer, after seven days, read-out: composé restant
Procedure: Les agents édulcorants de la présente invention sont généralement stables. La stabilité est déterminée à pH 3 en solution dans un tampon phosphate 1mM à 70 °C. La concentration du composé restant est déterminée par chromatographie liquide haute pression (HPLC). Par exemple, après six jours dans de telles conditions, on retrouve encore la moitié du composé de l'exemple 14 dans lequel X4 est CN, X3, X5, R1, R3 et R4 sont H, A est N, et R2 est (S) CH (CH3) C6H5. On améliore la stabilité lorsque l'on remplace l'atome d'hydrogène de R1 par CH3. Ainsi, après sept jours dans les mêmes conditions , on retrouve encore 88 % du composé de l'exemple 31 dans lequel X3 et X5 sont Cl, X4, R3 et R4 sont H, A est N, R1 est CH3, et R2 est CH2C6H5. De la même manière, toujours après sept jours et dans les mêmes conditions, on retrouve 86 % du composé de l'exemple 33 dans lequel X4 est CN, X3, X5, R3 et R4 sont H, A est N, R1 est CH3, et R2 est CH2C6H5.

[3] = cited from earlier work
[4] = by comparison with a 2 % sucrose solution
[5] = by comparison with a 5 % sucrose solution
[6] = by comparison with a 10 % sucrose solution

SMILES | Pouvoir édulcorant [1] | pouvoir édulcorant, sur une base pondérale [1, 4] | pouvoir édulcorant, sur une base pondérale [1, 5] | pouvoir édulcorant, sur une base pondérale [1, 6] | remaining at 168 h [2] [%] | Pouvoir sucrant (saccharose = 1) [3] | composé restant ([2]; after six days)
CN(Cc1ccccc1)C(=Nc1ccc(C#N)cc1)NCC(=O)O [Exemple 33, acide N-[N-méthyl-N-benzylamino(4-cyanophénylimino)méthyl]-2-aminoéthanoique] | 3000 | ~3 000 fois celui du saccharose | ~1800 times sucrose | ~1 200 fois celui du saccharose | 86 |  | 
CN(Cc1ccccc1)C(=Nc1cc(Cl)cc(Cl)c1)NCC(=O)O [Exemple 31, acide N-[N-méthyl-N-benzylamino (3,5-dichlorophénylimino)méthyl]-2-aminoéthanoïque] | 20000 | ~20 000 fois celui du saccharose |  |  | 88 |  | 
O=C1NS(=O)(=O)c2ccccc21 [Saccharine] |  |  |  |  |  | 400 | 
C=C1C[C@@]23CC[C@H]4[C@@](C)(CCC[C@@]4(C)C(=O)O[C@@H]4O[C@H](CO)[C@@H](O)[C@H](O)[C@H]4O)[C@@H]2CC[C@]1(O[C@@H]1O[C@H](CO)[C@@H](O)[C@H](O)[C@H]1O[C@@H]1O[C@H](CO)[C@@H](O)[C@H](O)[C@H]1O)C3 [Stévioside] |  |  |  |  |  | 300 | 
C[C@H](NC(=Nc1ccc(C#N)cc1)NCC(=O)O)c1ccccc1 [Exemple 14, acide N-[N-(S)-α-méthylbenzylamino (4-cyanophénylimino)méthyl]-2-aminoéthanoïque] | 28000 | ~28 000 fois celui du saccharose | ~20 000 fois celui du saccharose | ~10 000 fois celui du saccharose |  |  | la moitié
